Measured values as given in publication PMC6274350, “Design, Synthesis, and Cytotoxicity of 5-Fluoro-2-methyl-6-(4-aryl-piperazin-1-yl) Benzoxazoles” (Molecules, 2016).

How the values were obtained:
[1] = CellTiter-Glo luminescent cell viability (cytotoxicity) assay on hepatocytes; format: cell-based, human; details: human, Liver cells, hepatocytes (HepaRG), 24 h, vs DMSO vehicle
Protocol: (§1) The cytotoxicity of prepared benzoxazoles (7a–j) and intermediates (6a–j and 9) were measured by applying the CellTiter-Glo® luminescent cell proliferation assay (G755A, Promega, Madison, WI, USA). This method permits the determination of viable cells numbers in the culture based on quantitation of the ATP present, which denotes the presence of metabolically active cells. In vitro cytotoxicity analysis was overall performed following the protocol as described in “Guidance Document on Using in Vitro Data to Estimate in Vivo Starting Doses for Acute Toxicity Based on Recommendations” [18]. Human A-549 cells are human lung cancer epithelial cells, which were chosen as the tumor model, whereas the HepaRG™ cell line is a classic hepatic cell line that retains many characteristics of primary human hepatocytes. HepaRG™ cells are terminally differentiated.
(§2) Human cell cultures: Hepatocytes (HepaRG^TM cells) were obtained from Life Technologies, and were cultivated in William’s E Medium (Gibco, Life Technologies, Waltham, MA, USA) and supplemented with 1x GlutaMAX™ plus 1x HepaRG^TM General Purpose Medium Supplement in 25-cm^2 or 75-cm^2 flasks (TPP, Trasadingen, Switzerland) at 37 °C and 5% CO2. Lung cancer epithelial cells A-549 were propagated in Epilife Medium (Gibco, Life Technologies; MEPICF) and combined with CaCl2 and 1x-growth-supplement containing penicillin and streptomycin (Gibco, Life Technologies). For sub-culturing, cells were split at a ratio of 1:4 to 1:8. For cryopreservation, cells were frozen in 10% DMSO in liquid nitrogen.
(§3) Human cytotoxicity assay: Human hepatocytes or human lung carcinoma cells were seeded into sterile black clear-bottomed polystyrene Corning® CellBind® 96-well plates (Munich, Germany) at a density of 20,000 cells/well after calculating cell numbers from trypsinized samples in a classical Neubauer Improved hemocytometer (VWR, Munich, Germany). The cells were grown for 24 h at 37 °C in a 5% CO2 atmosphere in Epilife medium (keratinocytes) or William′s E medium (hepatocytes). After a 24-h recovery period, media were removed from the wells by aspiration. The cells were then immediately exposed to the respective test compounds or reference antibiotics (prepared in advance in 100 µL of the same media) for 24 h 37 °C with 5% CO2. The concentration tested ranged from 0.1 µM to 500 µM (0.1 µM, 1 µM, 10 µM, 50 µM, 100 µM, 250 µM, and 500 µM) and was formulated as a 100× concentrated stock each, resulting in a final constant DMSO concentration of 1% per 100-µL sample volume. Test series were each performed in triplicate, and additionally included a vehicle reference (DMSO only) plus another internal control for evaluating overall assay performance. Additionally, cells were visually examined under a light microscope for any morphological abnormalities relative to the untreated cells. Subsequently, cell viability, as an indicator of potential cytotoxicity, was measured by applying the CellTiter-Glo® luminescent cell proliferation assay (G755A, Promega, Madison, WI, USA). This method permits the determination of the number of viable cells in culture based on quantitation of the ATP present, which denotes the presence of metabolically active cells. To this end, 100 µL (equal to the volume of culture medium) of the kit-provided CellTiter-Glo® reagent (reconstituted by transferring the thawed CellTiter-Glo® buffer to the lyophilized enzyme and substrate mixture) was directly added to each well with a repetitive dispensing pipette. The contents were then mixed for 2 min at room temperature on an orbital minishaker (IKA® MS3 digital, Staufen, Germany) at 450 rpm to induce efficient cell lysis, and then further incubated for 10 min at room temperature for stabilization of the resultant luminescent signal. […]

[2] = test system: A-549 lung carcinoma cells; experiment: CellTiter-Glo luminescent cell viability (cytotoxicity) assay on lung cancer cells; format: cell-based, human; details: for Lung cancer cells killed: A-549; for Lung cancer cells killed / viability at 10 µM: 10 µM; for viability at 0.1 µM / viability at 1 µM / viability at 10 µM / viability at 50 µM / viability at 100 µM: Homo sapiens, A549, Lung cancer cells (A-549), 24 h, vs DMSO vehicle
Protocol: as §1, §2, §3

[3] = Visible solubility / precipitation of test compounds in cell-culture media; format: physicochemical; details: 50 µM; no conclusion on cytotoxicity possible
Protocol: Since the majority of test compound solutions with concentrations above 50 µM precipitated in cell-culture media, we performed cytotoxicity assays for healthy and cancer cells at 50 µM.

SMILES | melting point | viability at 24 h, 0.1 µM [1] | viability at 24 h, 1 µM [1] | viability at 24 h, 10 µM [1] | viability at 24 h, 50 µM [1] | viability at 24 h, 100 µM [1] | Lung cancer cells killed [2] | viability at 0.1 µM [2] | viability at 1 µM [2] | viability at 10 µM [2] | viability at 50 µM [2] | viability at 100 µM [2] | Precipitation in cell-culture media [3]
O=[N+]([O-])c1cc(F)c(Cl)cc1O | 82 to 83 °C |  |  |  |  |  |  |  |  |  |  |  | 
O=[N+]([O-])c1cc(F)c(N2CCN(c3ccccc3)CC2)cc1O [Compound 6a, 4-Fluoro-2-nitro-5-(4-phenyl-piperazin-1-yl)-phenol] | 197 to 198 °C | 86% | 97% | 112% | 90% | 76% | ~ 40% | 97% | 104% | 64% | 61% | 58% | 
Cc1ccc(N2CCN(c3cc(O)c([N+](=O)[O-])cc3F)CC2)cc1 [Compound 6b, 4-Fluoro-2-nitro-5-(4-p-tolyl-piperazin-1-yl)-phenol] | 178 to 179 °C | 107% | 123% | 120% | 97% | 96% |  | 99% | 100% | 68% | 65% |  | 
O=[N+]([O-])c1cc(F)c(N2CCN(c3ccc(O)cc3)CC2)cc1O [Compound 6c, 4-Fluoro-5-[4-(4-hydroxy-phenyl)-piperazin-1-yl]-2-nitro-phenol] | 218 to 219 °C | 95% | 101% | 110% | 101% | 89% |  | 104% | 103% | 102% | 94% |  | 
COc1ccc(N2CCN(c3cc(O)c([N+](=O)[O-])cc3F)CC2)cc1 [Compound 6e, 4-Fluoro-5-[4-(4-methoxy-phenyl)-piperazin-1-yl]-2-nitro-phenol] | 202 to 204 °C | 107% | 110% | 104% | 74% | 79% |  | 101% | 104% | 96% | 71% |  | 
O=[N+]([O-])c1cc(F)c(N2CCN(c3ccccc3O)CC2)cc1O [Compound 6f, 4-Fluoro-5-[4-(2-hydroxy-phenyl)-piperazin-1-yl]-2-nitro-phenol] | 176 to 178 °C | 105% | 104% | 110% | 76% |  |  | 97% | 100% | 93% | 60% | 46% | 
O=[N+]([O-])c1cc(F)c(N2CCN(c3ccccc3F)CC2)cc1O [Compound 6g, 4-Fluoro-5-[4-(2-fluoro-phenyl)-piperazin-1-yl]-2-nitro-phenol] | 180 to 181 °C | 110% | 109% | 112% | 87% |  | ~ 40% | 96% | 96% | 62% | 51% | 42% | 
O=[N+]([O-])c1cc(F)c(N2CCN(c3cccc(O)c3)CC2)cc1O [Compound 6h, 4-Fluoro-5-[4-(3-hydroxy-phenyl)-piperazin-1-yl]-2-nitro-phenol] | 207 to 208 °C | 117% | 109% | 108% | 83% | 58% |  | 106% | 106% | 105% | 87% |  | 
COc1cccc(N2CCN(c3cc(O)c([N+](=O)[O-])cc3F)CC2)c1 [Compound 6i, 4-Fluoro-5-[4-(3-methoxy-phenyl)-piperazin-1-yl]-2-nitro-phenol] | 148 to 149 °C | 79% | 95% | 99% |  |  |  | 95% | 93% | 96% | 69% |  | precipitation problem
O=[N+]([O-])c1cc(F)c(N2CCN(c3ccc(Cl)c(Cl)c3)CC2)cc1O [Compound 6j, 5-[4-(3,4-Dichloro-phenyl)-piperazin-1-yl]-4-fluoro-2-nitro-phenol] | 211 to 213 °C | 119% | 115% | 81% | 102% | 108% |  | 98% | 94% | 65% | 62% |  | 
Cc1nc2cc(F)c(N3CCN(c4ccccc4)CC3)cc2o1 [Compound 7a, 5-Fluoro-2-methyl-6-(4-phenylpiperazin-1-yl)-benzo[d]oxazole] | 153 to 154 °C | 101% | 97% | 94% |  |  |  | 101% | 96% | 90% | 60% |  | precipitation problem
Cc1nc2cc(F)c(N3CCN(c4ccc(O)cc4)CC3)cc2o1 [Compound 7c, 4-[4-(5-Fluoro-2-methyl-benzooxazol-6-yl)-piperazin-1-yl]-phenol] | 188 to 191 °C | 98% | 107% | 101% | 93% |  |  | 92% | 97% | 101% | 90% | 83% | 
Cc1nc2cc(F)c(N3CCN(c4ccc(F)cc4)CC3)cc2o1 [Compound 7d, 5-Fluoro-6-[4-(4-fluoro-phenyl)-piperazin-1-yl]-2-methyl-benzooxazole] | 148 to 150 °C | 91% | 94% | 85% |  |  |  | 98% | 98% | 87% | 87% | 82% | precipitation problem
COc1ccc(N2CCN(c3cc4oc(C)nc4cc3F)CC2)cc1 [Compound 7e, 5-Fluoro-6-[4-(4-methoxy-phenyl)-piperazin-1-yl]-2-methyl-benzooxazole] | 156 to 157 °C | 107% | 108% | 91% | 71% |  |  | 93% | 92% | 75% | 74% | 68% | 
